# Assays:
# [1] = test system: chronic graft-versus-host disease (cGVHD); test: Example 2 phase II randomized study: response per 2014 NIH criteria (best ORR, DOR, TTR, FFS, OS); assay type: in vivo, human; conditions: for ORR / ORR for responses occurring within 6 mo of treatment / ORR for responses occurring within 12 mo of treatment: mITT
# Procedure: All responses were assessed by the study site investigators.
# Here, we report data from the 12-month analysis.
# [2] = pharmacokinetics in chronic GVHD patients; assay type: in vivo, human; conditions: 200 and 400 mg
# P-gp = P-gp (Homo sapiens, UniProt P08183); test: transporter inhibition in vitro; assay type: in vitro ADME; conditions: at clinically relevant concentrations
# Sequence of P-gp (P08183 whole entry): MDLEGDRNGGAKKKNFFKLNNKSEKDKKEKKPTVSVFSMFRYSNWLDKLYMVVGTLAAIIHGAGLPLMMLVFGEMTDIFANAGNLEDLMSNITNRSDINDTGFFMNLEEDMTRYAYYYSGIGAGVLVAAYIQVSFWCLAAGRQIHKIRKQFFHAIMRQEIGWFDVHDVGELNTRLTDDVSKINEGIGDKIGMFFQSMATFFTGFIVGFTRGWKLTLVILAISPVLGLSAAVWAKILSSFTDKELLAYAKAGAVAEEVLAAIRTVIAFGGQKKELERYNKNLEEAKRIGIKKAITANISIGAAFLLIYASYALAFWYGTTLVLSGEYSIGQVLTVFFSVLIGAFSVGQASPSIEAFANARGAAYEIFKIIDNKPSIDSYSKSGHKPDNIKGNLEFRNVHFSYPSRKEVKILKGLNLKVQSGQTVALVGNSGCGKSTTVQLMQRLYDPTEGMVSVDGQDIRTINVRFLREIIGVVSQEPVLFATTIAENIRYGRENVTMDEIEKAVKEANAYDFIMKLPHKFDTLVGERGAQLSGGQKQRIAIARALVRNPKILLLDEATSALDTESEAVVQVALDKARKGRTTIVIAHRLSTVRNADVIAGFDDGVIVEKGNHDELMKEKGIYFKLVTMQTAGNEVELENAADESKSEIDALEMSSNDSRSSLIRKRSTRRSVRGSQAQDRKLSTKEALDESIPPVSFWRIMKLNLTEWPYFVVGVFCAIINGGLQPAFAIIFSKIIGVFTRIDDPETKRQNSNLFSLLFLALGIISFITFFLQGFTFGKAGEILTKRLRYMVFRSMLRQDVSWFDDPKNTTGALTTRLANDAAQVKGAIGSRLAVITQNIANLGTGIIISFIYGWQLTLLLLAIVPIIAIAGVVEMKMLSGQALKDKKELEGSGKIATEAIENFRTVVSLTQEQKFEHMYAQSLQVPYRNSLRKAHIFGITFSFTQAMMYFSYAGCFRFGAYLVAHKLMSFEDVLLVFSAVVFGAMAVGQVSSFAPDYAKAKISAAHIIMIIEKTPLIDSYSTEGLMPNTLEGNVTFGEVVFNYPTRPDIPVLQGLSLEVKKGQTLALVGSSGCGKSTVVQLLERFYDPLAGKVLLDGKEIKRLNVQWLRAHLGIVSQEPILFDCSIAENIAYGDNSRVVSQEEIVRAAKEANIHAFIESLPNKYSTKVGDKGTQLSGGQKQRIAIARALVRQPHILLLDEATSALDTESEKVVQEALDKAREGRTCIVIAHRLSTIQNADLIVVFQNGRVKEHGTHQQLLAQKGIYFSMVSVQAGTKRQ
# [3] = responses within 6 mo of treatment, 200 mg daily (n = 66)
# [4] = responses within 6 mo of treatment, 200 mg twice daily (n = 66)
# [5] = responses within 6 mo of treatment, Total (N = 132)
# [6] = responses within 12 mo of treatment, 200 mg daily (n = 66)
# [7] = responses within 12 mo of treatment, 200 mg twice daily (n = 66)
# [8] = responses within 12 mo of treatment, Total (N = 132)
compound,measurement,setting,value
"CC(C)NC(=O)COc1cccc(-c2nc(Nc3ccc4[nH]ncc4c3)c3ccccc3n2)c1 [Belumosudil, 2-{3-[4-(1H-indazol-5-ylamino)-2-quinazolinyl]phenoxy}-N-(propan-2-yl) acetamide]","CR, Esophagus",[1]; 200 mg BID,5 (42) n (%)
same,"CR, Eyes",[1]; 200 mg BID,6 (12) n (%)
same,"CR, Joints and fascia",[1]; 200 mg BID,10 (20) n (%)
same,"CR, Liver",[1]; 200 mg BID,2 (50) n (%)
same,"CR, Lower GI",[1]; 200 mg BID,4 (57) n (%)
same,"CR, Lungs",[1]; 200 mg BID,2 (9) n (%)
same,"CR, Mouth",[1]; 200 mg BID,17 (41) n (%)
same,"CR, Skin",[1]; 200 mg BID,10 (18) n (%)
same,"CR, Upper GI",[1]; 200 mg BID,4 (40) n (%)
same,"ORR, Esophagus",[1]; 200 mg BID,5 (42) n (%)
same,"ORR, Eyes",[1]; 200 mg BID,25 (51) n (%)
same,"ORR, Joints and fascia",[1]; 200 mg BID,33 (67) n (%)
same,"ORR, Liver",[1]; 200 mg BID,2 (50) n (%)
same,"ORR, Lower GI",[1]; 200 mg BID,5 (71) n (%)
same,"ORR, Lungs",[1]; 200 mg BID,5 (22) n (%)
same,"ORR, Mouth",[1]; 200 mg BID,24 (57) n (%)
same,"ORR, Skin",[1]; 200 mg BID,23 (42) n (%)
same,"ORR, Upper GI",[1]; 200 mg BID,4 (40) n (%)
same,"PR, Esophagus",[1]; 200 mg BID,0 n (%)
same,"PR, Eyes",[1]; 200 mg BID,19 (39) n (%)
same,"PR, Joints and fascia",[1]; 200 mg BID,23 (47) n (%)
same,"PR, Liver",[1]; 200 mg BID,0 n (%)
same,"PR, Lower GI",[1]; 200 mg BID,1 (14) n (%)
same,"PR, Lungs",[1]; 200 mg BID,3 (13) n (%)
same,"PR, Mouth",[1]; 200 mg BID,7 (17) n (%)
same,"PR, Skin",[1]; 200 mg BID,13 (24) n (%)
same,"PR, Upper GI",[1]; 200 mg BID,0 n (%)
same,"CR, Esophagus",[1]; 200 mg QD,9 (47) n (%)
same,"CR, Eyes",[1]; 200 mg QD,8 (17) n (%)
same,"CR, Joints and fascia",[1]; 200 mg QD,10 (20) n (%)
same,"CR, Liver",[1]; 200 mg QD,2 (22) n (%)
same,"CR, Lower GI",[1]; 200 mg QD,4 (67) n (%)
same,"CR, Lungs",[1]; 200 mg QD,4 (17) n (%)
same,"CR, Mouth",[1]; 200 mg QD,15 (50) n (%)
same,"CR, Skin",[1]; 200 mg QD,8 (15) n (%)
same,"CR, Upper GI",[1]; 200 mg QD,7 (54) n (%)
same,"ORR, Esophagus",[1]; 200 mg QD,9 (47) n (%)
same,"ORR, Eyes",[1]; 200 mg QD,16 (33) n (%)
same,"ORR, Joints and fascia",[1]; 200 mg QD,38 (75) n (%)
same,"ORR, Liver",[1]; 200 mg QD,3 (33) n (%)
same,"ORR, Lower GI",[1]; 200 mg QD,4 (67) n (%)
same,"ORR, Lungs",[1]; 200 mg QD,7 (29) n (%)
same,"ORR, Mouth",[1]; 200 mg QD,16 (53) n (%)
same,"ORR, Skin",[1]; 200 mg QD,18 (33) n (%)
same,"ORR, Upper GI",[1]; 200 mg QD,8 (62) n (%)
same,"PR, Esophagus",[1]; 200 mg QD,0 n (%)
same,"PR, Eyes",[1]; 200 mg QD,8 (17) n (%)
same,"PR, Joints and fascia",[1]; 200 mg QD,28 (55) n (%)
same,"PR, Liver",[1]; 200 mg QD,1 (11) n (%)
same,"PR, Lower GI",[1]; 200 mg QD,0 n (%)
same,"PR, Lungs",[1]; 200 mg QD,3 (13) n (%)
same,"PR, Mouth",[1]; 200 mg QD,1 (3) n (%)
same,"PR, Skin",[1]; 200 mg QD,10 (18) n (%)
same,"PR, Upper GI",[1]; 200 mg QD,1 (8) n (%)
same,FFS at 6 mo (95% CI),[1]; 200 mg daily (n = 66),73 (61-83) %
same,FFS at 12 mo (95% CI),[1]; 200 mg daily (n = 66),57 (44-68) %
same,FFS at 6 mo (95% CI),[1]; 200 mg twice daily (n = 66),76 (63-84) %
same,FFS at 12 mo (95% CI),[1]; 200 mg twice daily (n = 66),56 (43-67) %
same,2-year OS rate,[1]; Example 2,89%
same,additional lung CRs based on NIH lung symptom score 1 to 0,[1]; Example 2,3 subjects
same,best ORR in subjects refractory to their last lines of therapy,[1]; Example 2,75%
same,initiation of a new systemic cGVHD therapy (failure event),[1]; Example 2,38%
same,lung CR based on normalization of FEV1,[1]; Example 2,3 subjects
same,median FEV1 increase for all subjects achieving lung PR,[1]; Example 2,10%
same,median FEV1 increase in lung CR subjects,[1]; Example 2,23%
same,nonrelapse mortality (NRM),[1]; Example 2,7%
same,overall median time to response,[1]; Example 2,5 weeks
same,relapse,[1]; Example 2,3%
same,responses seen after 6 to 12 months of treatment,[1]; Example 2,9%
same,skin responders with decrease in body surface area involvement,[1]; Example 2,15 subjects
same,skin responders with decrease in sclerotic features,[1]; Example 2,11 subjects
same,skin responders with improvement in both body surface area and sclerotic features,[1]; Example 2,13 subjects
same,subjects with lung responses,[1]; Example 2,12 subjects
same,subjects with skin responses,[1]; Example 2,41 subjects
same,best ORR,"[1]; Example 2, 200 mg daily",74%
same,best ORR,"[1]; Example 2, 200 mg twice daily",77%
same,overall FFS rate,"[1]; Example 2, at 6 months",75%
same,overall FFS rate,"[1]; Example 2, at 12 months",56%
same,ORRs in all subgroups,"[1]; Example 2, mITT",61-85%
same,best ORR in the esophagus,"[1]; Example 2, mITT",45%
same,best ORR in the eyes,"[1]; Example 2, mITT",42%
same,best ORR in the joints/fascia,"[1]; Example 2, mITT",71%
same,best ORR in the liver,"[1]; Example 2, mITT",39%
same,best ORR in the lower GI tract,"[1]; Example 2, mITT",69%
same,best ORR in the lungs,"[1]; Example 2, mITT",26%
same,best ORR in the mouth,"[1]; Example 2, mITT",55%
same,best ORR in the skin,"[1]; Example 2, mITT",37%
same,best ORR in the upper GI tract,"[1]; Example 2, mITT",52%
same,"ORR, subgroup with prior ibrutinib therapy","[1]; Example 2, pooled arms",74%
same,"ORR, subgroup with prior ruxolitinib therapy","[1]; Example 2, pooled arms",68%
same,median DOR,"[1]; Example 2, responder population",54 weeks
same,"CR, Esophagus",[1]; Total,14 (45) n (%)
same,"CR, Eyes",[1]; Total,14 (14) n (%)
same,"CR, Joints and fascia",[1]; Total,20 (20) n (%)
same,"CR, Liver",[1]; Total,4 (31) n (%)
same,"CR, Lower GI",[1]; Total,8 (62) n (%)
same,"CR, Lungs",[1]; Total,6 (13) n (%)
same,"CR, Mouth",[1]; Total,32 (44) n (%)
same,"CR, Skin",[1]; Total,18 (16) n (%)
same,"CR, Upper GI",[1]; Total,11 (48) n (%)
same,"ORR, Esophagus",[1]; Total,14 (45) n (%)
same,"ORR, Eyes",[1]; Total,41 (42) n (%)
same,"ORR, Joints and fascia",[1]; Total,71 (71) n (%)
same,"ORR, Liver",[1]; Total,5 (39) n (%)
same,"ORR, Lower GI",[1]; Total,9 (69) n (%)
same,"ORR, Lungs",[1]; Total,12 (26) n (%)
same,"ORR, Mouth",[1]; Total,40 (56) n (%)
same,"ORR, Skin",[1]; Total,41 (37) n (%)
same,"ORR, Upper GI",[1]; Total,12 (52) n (%)
same,"PR, Esophagus",[1]; Total,0 n (%)
same,"PR, Eyes",[1]; Total,27 (28) n (%)
same,"PR, Joints and fascia",[1]; Total,51 (51) n (%)
same,"PR, Liver",[1]; Total,1 (8) n (%)
same,"PR, Lower GI",[1]; Total,1 (8) n (%)
same,"PR, Lungs",[1]; Total,6 (13) n (%)
same,"PR, Mouth",[1]; Total,8 (11) n (%)
same,"PR, Skin",[1]; Total,23 (21) n (%)
same,"PR, Upper GI",[1]; Total,1 (4) n (%)
same,FFS at 6 mo (95% CI),[1]; Total (N = 132),75 (66-81) %
same,FFS at 12 mo (95% CI),[1]; Total (N = 132),56 (47-64) %
same,ORR,[1]; 200 mg daily (n = 66),49 (74) n (%)
same,ORR for responses occurring within 6 mo of treatment,[1]; 200 mg daily (n = 66),47 (71) n (%)
same,ORR for responses occurring within 12 mo of treatment,[1]; 200 mg daily (n = 66),49 (74) n (%)
same,ORR,[1]; 200 mg twice daily (n = 66),51 (77) n (%)
same,ORR for responses occurring within 6 mo of treatment,[1]; 200 mg twice daily (n = 66),48 (73) n (%)
same,ORR for responses occurring within 12 mo of treatment,[1]; 200 mg twice daily (n = 66),50 (76) n (%)
same,ORR,[1]; Total (N = 132),100 (76) n (%)
same,ORR for responses occurring within 6 mo of treatment,[1]; Total (N = 132),95 (72) n (%)
same,ORR for responses occurring within 12 mo of treatment,[1]; Total (N = 132),99 (75) n (%)
same,CR,[1]; [3],2 (3) n (%)
same,PR,[1]; [3],45 (68) n (%)
same,CR,[1]; [4],1 (2) n (%)
same,PR,[1]; [4],47 (71) n (%)
same,CR,[1]; [5],3 (2) n (%)
same,PR,[1]; [5],92 (70) n (%)
same,CR,[1]; [6],4 (6) n (%)
same,PR,[1]; [6],45 (68) n (%)
same,CR,[1]; [7],2 (3) n (%)
same,PR,[1]; [7],48 (73) n (%)
same,CR,[1]; [8],6 (5) n (%)
same,PR,[1]; [8],93 (71) n (%)
same,dose dependence of Cmax and AUC,[2],approximately proportional
same,inhibition of P-gp,P-gp,inhibits

# Source: patent US20260027116A1, “Methods of Treating Chronic Graft-Versus-Host Disease Following Allogeneic Hematopoietic Stem Cell Transplantation” (Kadmon Corporation, LLC, priority 2022, published 2026)
